Results from patent publication US20250353873A1, “COMPOUNDS AND METHODS FOR MODULATING APOE EXPRESSION” (Ionis Pharmaceuticals, Inc., priority 2024, published 2025).
Strand notation (5' to 3'): a small letter for the sugar, then the base; units joined by * are phosphorothioate-linked, units joined directly phosphodiester-linked; [ ] holds rarer units or linkages, { } end groups; capitals alone tell only the bases. [ms] = mesyl phosphoramidate linkage; e = 2'-O-(2-methoxyethyl) (MOE); k = constrained ethyl (cEt); [5mC] = 5-methylcytosine; d = 2'-deoxy (DNA)

System: human APOE RNA
Assay: Dose-dependent inhibition of human APOE RNA in HepG2 cells, electroporation, 50,000 cells per well, RT-PCR normalized to GAPDH (Example 4, Tables 8-10)
Type: cell-based
Settings: HepG2, electroporation
Procedure: Modified oligonucleotides selected from the examples above were tested at various doses in HepG2 cells. The modified oligonucleotides were tested in a series of experiments that had the same culture conditions. Each experiment is identified in separate tables below.
HepG2 cells plated at a density of 50,000 cells per well were treated by electroporation with various concentrations of modified oligonucleotide as specified in the tables below. […] APOE RNA levels were measured using the human primer probe set RTS3073 (forward sequence […], designated herein as SEQ ID NO: 7; reverse sequence CCATCAGCGCCCTCAGTT, designated herein as SEQ ID NO: 8; probe sequence […], designated herein as SEQ ID NO:9). APOE RNA levels were normalized to human GAPDH. […] Results are presented as percent APOE RNA, relative to the amount of APOE RNA in untreated control cells (UTC).

Row | Substance | APOE RNA (% UTC) (5 nM, 16-hour treatment) | APOE RNA (% UTC) (13 nM, 16-hour treatment) | APOE RNA (% UTC) (33 nM, 16-hour treatment) | APOE RNA (% UTC) (82 nM, 16-hour treatment) | APOE RNA (% UTC) (205 nM, 16-hour treatment) | APOE RNA (% UTC) (512 nM, 16-hour treatment) | APOE RNA (% UTC) (1,280 nM, 16-hour treatment) | APOE RNA (% UTC) (3,200 nM, 16-hour treatment) | APOE RNA (% UTC) (8,000 nM, 16-hour treatment) | APOE RNA (% UTC) (5 nM, 24-hour treatment) | APOE RNA (% UTC) (13 nM, 24-hour treatment) | APOE RNA (% UTC) (33 nM, 24-hour treatment) | APOE RNA (% UTC) (82 nM, 24-hour treatment) | APOE RNA (% UTC) (205 nM, 24-hour treatment) | APOE RNA (% UTC) (512 nM, 24-hour treatment) | APOE RNA (% UTC) (1,280 nM, 24-hour treatment) | APOE RNA (% UTC) (3,200 nM, 24-hour treatment) | APOE RNA (% UTC) (8,000 nM, 24-hour treatment) | APOE RNA (% UTC) (20,000 nM, 24-hour treatment) | IC50 (24-hour treatment) [nM] | other results
1 | 1757557: mixed MOE/cEt gapmer TTGGTGAATCTTTATTAA, sugar eeeeeddddddddeekke, linkages soossssssssssooss (eT*eTeGeG*eT*dG*dA*dA*dT*d[5mC]*dT*dT*dT*eAeTkT*kA*eA) [compound 1757557] | 79 | 88 | 89 | 88 | 86 | 89 | 94 | 59 | 36 |  |  |  |  |  |  |  |  |  |  |  | APOE RNA (% UTC) (20,000 nM, 16-hour treatment): 7 % UTC; IC50 (16-hour treatment): 4680 nM
2 | 1766537 (eT*eTeGeGeT*dG[ms]dA[ms]dA[ms]dT*d[5mC]*dT*dT*dT[ms]dA*dT*kTkAeA*eA*e[5mC]; antisense) [Compound 1766537] | 95 | 111 | 108 | 89 | 90 | 85 | 62 | 36 | 21 |  |  |  |  |  |  |  |  |  |  |  | APOE RNA (% UTC) (20,000 nM, 16-hour treatment): 5 % UTC; IC50 (16-hour treatment): 2010 nM
3 | 1746813 (k[5mC]*dT[ms]dT[ms]kG*dG[ms]kT*dG[ms]dA[ms]dA[ms]dT*d[5mC]*dT*dT*dT*dA[ms]dT*dT[ms]kA*kA*kA; antisense) [Compound 1746813] |  |  |  |  |  |  |  |  |  | 137 | 117 | 119 | 101 | 100 | 83 | 57 | 41 | 19 | 21 | 2250 | 
4 | 1746785 (k[5mC]*kT*dT[ms]kG*dG[ms]dT[ms]dG[ms]dA[ms]dA[ms]dT*d[5mC]*dT*dT*dT*dA[ms]dT*kT*kA*dA[ms]kA; antisense) [Compound 1746785] |  |  |  |  |  |  |  |  |  | 90 | 93 | 97 | 84 | 83 | 53 | 48 | 29 | 8 | 35 | 1040 | 
5 | 1746805 (k[5mC]*kT*dT[ms]kG*dG[ms]dT[ms]dG[ms]dA[ms]dA[ms]dT*d[5mC]*dT*dT*dT*dA[ms]dT*dT[ms]kA*kA*kA; antisense) [Compound 1746805] |  |  |  |  |  |  |  |  |  | 95 | 109 | 93 | 94 | 65 | 75 | 41 | 39 | 29 | 11 | 1360 | 
6 | 1747051 (k[5mC]*kT*dT[ms]kG*dG[ms]kT*dG[ms]dA[ms]dA[ms]dT*d[5mC]*dT*dT*dT*dA[ms]dT*kT*dA[ms]dA[ms]kA; antisense) [Compound 1747051] |  |  |  |  |  |  |  |  |  | 111 | 117 | 152 | 128 | 111 | 67 | 76 | 42 | 31 | 9 | 2900 | 
7 | 1757569 (eA*e[5mC]eTkTkG*dG*dT*dG*dA*dA*dT*d[5mC]*dT*dT*dT*kAeTeT*eA*eA; antisense) [Compound 1757569] | 101 | 91 | 82 | 81 | 60 | 38 | 24 | 24 | 18 |  |  |  |  |  |  |  |  |  |  |  | APOE RNA (% UTC) (20,000 nM, 16-hour treatment): 18 % UTC; IC50 (16-hour treatment): 390 nM
